From US9687529B2, “Method of controlling coagulation” (Duke University, priority 2011, dated 2017)
“Also recorded” adds a separate entry of the source.

Assays:
[1] = system: thrombin generation in normal human platelet poor plasma; experiment: Calibrated automated thrombography (CAT); type: biochemical
Protocol: Normal human platelet poor plasma (80 μL) was mixed with aptamer(s) (10 μL) in an Immunolon 2HB U Bottom Mictrotiter 96-well plate (Thermo Labsystems, Franklin, Mass.) and incubated at 37° C. for 5 min. PPP reagent (Diagnostica Stago, Parsippany, N.J.) (either 1 ρM or 5 ρM TF, 20 μL, Diagnostica Stago) was added, and the mixture was incubated at 37° C. for another 5 min. FluCa (Diagnostica Stago) (10 μL) was added to initiate the assay and thrombin generation was measured for 60 minutes at 37° C. with a Fluoroskan Ascent fluorometer (ThermoLabsystem, Helsinki, Finland) according to the manufacturer's instructions. The amount of thrombin generated was quantified by comparison to an assay with thrombin calibrator reagent (Diagnostica Stago) that has a known activity toward the fluorogenic substrate. The lag time, peak amount of thrombin generated, and endogenous thrombin potential (ETP) were automatically calculated by the Thrombinoscope software (Thrombinoscope BV, the Netherlands).
Thrombin is the final protease formed in the coagulation cascade, and the rate of thrombin generation and the total amount of thrombin generated is associated with blood clot formation and stability (Wolberg, Blood Rev 21:131-42 (2007)). To gain more information about the impact of aptamer anticoagulation on the kinetics of thrombin generation, the individual aptamers were analyzed with calibrated automated thrombography (CAT). The CAT assay measures real-time thrombin generation in plasma by monitoring cleavage of a thrombin-specific fluorogenic substrate in response to TF stimulation (Heruker et al, Pathophysiol Haemost Thromb 33: 4-15 (2003)). The parameters of thrombin generation analyzed include: the lag time (time until thrombin generation begins), the peak (the maximal amount of thrombin generated at a given time) and the endogenous thrombin potential (ETP, the total amount of thrombin generated). Similar to the aPTT and PT clotting assays, all of the individual aptamers dose-dependently impacted the various parameters of thrombin generation (FIG. 21 and Table 1). […] 9.3T minorly impacted all parameters of thrombin generation with the high TF reagent; however, because high concentrations of TF may bypass FIX activity by directly generating FXa, the manufacturer recommends low concentrations of TF for analyzing FIX deficient (i.e, Hemophilia B) plasma in the CAT.

[2] = system: clot formation in whole blood; experiment: TEG of whole blood, coagulation triggered by kaolin (Example I); type: cell-based; conditions: for α: buffer 44.9 degrees; for MA: buffer 63.1 mm; for R: buffer 6.8 minutes
Protocol: TEG is a waveform generated from serial measurements of the torque transmitted from a small oscillating cup to the tip of a metal pin inserted into the cup by a 360 microliter sample of blood or plasma added to the cup.
A 360 microliter blood sample has been added to the cup. For 180 minutes after the sample is added, the cup oscillates alternatively clockwise and counterclockwise through an arc of 4° 45′ at a frequency of one oscillation cycle—i. e., one clockwise rotation and one counterclockwise rotation—every 10 seconds. The lower end of the pin is immersed by the sample; the upper end is suspended from a torsion wire. The TEG analyzer records a single measurement of rotation-induced torque after each clockwise rotation and after each counterclockwise rotation of the cup. “The torque of the rotating cup is transmitted to the immersed pin only after fibrin-platelet bonding has linked the cup and [the] pin together. The strength of these fibrin-platelet bonds affects the magnitude of the pin motion, such that strong clots move the pin directly in phase with the cup motion. Thus, the magnitude of the output is directly related to the strength of the formed clot . . . . [If] the clot retracts or lyses, these bonds are broken and the transfer of cup motion is diminished. The rotation movement of the pin is converted by a mechanical-electrical transducer to an electrical signal which can be monitored by a computer” (TEG 5000 User Manual, pp 3-4, 1999-2007)). The computer converts the series of electrical signals into the TEG tracing.
In the absence of an anticoagulant (A), R was 6.8 minutes, α was 44.9 degrees, and MA was 63.1 mm. […] Thus, each aptamer, to varying degrees, prolonged the time to clot formation, reduced the rate of clot strengthening, and reduced the ultimate strength of the clot. However, as was true in the previous experiment, no aptamer acting alone at the concentrations tested prevented clot formation.

## 9.3T: FIXa aptamer, 2'-fluoropyrimidine modified RNA, SEQ ID NO: 1 (AUGGGGACUAUACCGCGUAAUGCUGCCUCCCCAU; 2'-fluoro at CU, RNA at AG, backbone not given here) [Aptamer 9.3T]
[1]; RNA 15 nM, TF 1 ρM
  ETP: 1463.50 ± 19.59 nM·min
  Lag-time: 3.06 ± 0.15 min
  Peak: 195.04 ± 6.91 nM
  TTP: 7.34 ± 0.26 min
[1]; RNA 15 nM, TF 5 ρM
  ETP: 1812.50 ± 81.01 nM·min
  Lag-time: 1.72 ± 0.20 min
  Peak: 341.90 ± 12.54 nM
  TTP: 4.23 ± 0.24 min
[1]; RNA 30 nM, TF 1 ρM
  ETP: 1350.17 ± 28.02 nM·min
  Lag-time: 3.00 ± 0.10 min
  Peak: 147.88 ± 4.28 nM
  TTP: 8.12 ± 0.34 min
[1]; RNA 30 nM, TF 5 ρM
  ETP: 1723.67 ± 57.51 nM·min
  Lag-time: 1.56 ± 0.20 min
  Peak: 316.98 ± 3.28 nM
  TTP: 4.28 ± 0.40 min
[1]; RNA 60 nM, TF 1 ρM
  ETP: 1261.50 ± 64.85 nM·min
  Lag-time: 2.89 ± 0.15 min
  Peak: 110.65 ± 6.70 nM
  TTP: 8.95 ± 0.15 min
[1]; RNA 60 nM, TF 5 ρM
  ETP: 1741.10 ± 78.84 nM·min
  Lag-time: 1.70 ± 0.11 min
  Peak: 283.76 ± 3.20 nM
  TTP: 4.90 ± 0.31 min
[1]; RNA 120 nM, TF 1 ρM
  ETP: 1125.00 ± 31.79 nM·min
  Lag-time: 2.72 ± 0.05 min
  Peak: 86.13 ± 3.02 nM
  TTP: 9.34 ± 0.19 min
[1]; RNA 120 nM, TF 5 ρM
  ETP: 1674.50 ± 56.02 nM·min
  Lag-time: 1.60 ± 0.15 min
  Peak: 272.90 ± 9.97 nM
  TTP: 4.74 ± 0.37 min
[2]; 2.0 micromolar, kaolin
  α: 36.6 degrees
  MA: 58.6 mm
  R: 29.2 min
[2]; FIXa aptamer 0.5 micromolar, kaolin
  time of clot formation (bifurcation): 22.1 min

## 11F7T: FXa aptamer, 2'-fluoropyrimidine modified RNA, SEQ ID NO: 2 (GAGAGCCCCAGCGAGAUAAUACUUGGCCCCGCUCUU; 2'-fluoro at CU, RNA at AG, backbone not given here) [Aptamer 11F7T]
[1]; RNA 125 nM, TF 5 ρM
  ETP: 1612.90 ± 142.40 nM·min
  Lag-time: 3.00 ± 0.22 min
  Peak: 227.75 ± 43.47 nM
  TTP: 7.24 ± 0.77 min
[1]; RNA 250 nM, TF 5 ρM
  ETP: 1220.50 ± 182.02 nM·min
  Lag-time: 4.94 ± 0.38 min
  Peak: 120.68 ± 21.79 nM
  TTP: 11.70 ± 1.13 min
[1]; RNA 500 nM, TF 5 ρM
  ETP: 738.60 ± 202.92 nM·min
  Lag-time: 7.97 ± 0.93 min
  Peak: 65.56 ± 14.57 nM
  TTP: 16.47 ± 1.83 min
[1]; RNA 1,000 nM, TF 5 ρM
  ETP: 459.40 ± 199.39 nM·min
  Lag-time: 9.50 ± 1.00 min
  Peak: 36.84 ± 14.42 nM
  TTP: 20.10 ± 2.96 min
[2]; 2.0 micromolar, kaolin
  α: 29.8 degrees
  MA: 48.4 mm
  R: 22.5 min
[2]; data not shown
  clot formation in TEG assays, single agents (in words): delay, but do not prevent clot formation

## R9D-14T: prothrombin/thrombin aptamer, 58-base truncation of RNA9D-14, SEQ ID NO: 3 (GGCGGTCGATCACACAGTTCAAACGTAATAAGCCAATGTACGAGGCAGACGACTCGCC; 2'-fluoro at CT, RNA at AG, backbone and T or U not given here) [Aptamer R9D-14T]
[1]; RNA 625 nM, TF 5 ρM
  ETP: 1492.50 ± 54.94 nM·min
  Lag-time: 1.55 ± 0.08 min
  Peak: 314.82 ± 25.02 nM
  TTP: 3.88 ± 0.18 min
[1]; RNA 1,250 nM, TF 5 ρM
  ETP: 1293.00 ± 67.66 nM·min
  Lag-time: 1.55 ± 0.08 min
  Peak: 269.45 ± 13.17 nM
  TTP: 3.67 ± 0.18 min
[1]; RNA 2,500 nM, TF 5 ρM
  ETP: 1170.90 ± 90.47 nM·min
  Lag-time: 4.37 ± 0.71 min
  Peak: 192.66 ± 31.04 nM
  TTP: 7.64 ± 1.31 min
[1]; RNA 5,000 nM (5 μM), TF 5 ρM
  thrombin generation (in words): completely inhibited thrombin generation; also recorded: no thrombin generation detected
[2]; 5.0 micromolar, kaolin
  α: 18.6 degrees
  MA: 42.5 mm
  R: 31.3 min
